In ChEMBL document CHEMBL5291721, “A preclinical secondary pharmacology resource illuminates target-adverse drug reaction associations of marketed drugs” (Nat Commun, 2023):

Key:
[1] = molecular target: T1, Alpha-2A adrenergic receptor (Homo sapiens, UniProt P08913); format: functional, cell-based
T1 sequence (P08913 whole entry): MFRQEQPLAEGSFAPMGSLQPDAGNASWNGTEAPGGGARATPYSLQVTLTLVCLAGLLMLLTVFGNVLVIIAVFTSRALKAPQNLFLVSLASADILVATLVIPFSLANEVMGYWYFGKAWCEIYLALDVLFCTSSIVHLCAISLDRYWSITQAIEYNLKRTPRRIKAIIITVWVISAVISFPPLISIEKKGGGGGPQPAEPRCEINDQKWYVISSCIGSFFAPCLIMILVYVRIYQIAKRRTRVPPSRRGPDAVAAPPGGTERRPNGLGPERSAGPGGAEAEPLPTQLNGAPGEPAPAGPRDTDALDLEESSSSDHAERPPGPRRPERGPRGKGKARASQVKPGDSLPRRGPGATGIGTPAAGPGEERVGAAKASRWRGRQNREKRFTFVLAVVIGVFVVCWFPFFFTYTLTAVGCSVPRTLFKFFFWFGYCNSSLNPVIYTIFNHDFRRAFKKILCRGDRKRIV

[2] = molecular target: T2, Type-1 angiotensin II receptor (Homo sapiens, UniProt P30556)
T2 sequence (P30556 whole entry): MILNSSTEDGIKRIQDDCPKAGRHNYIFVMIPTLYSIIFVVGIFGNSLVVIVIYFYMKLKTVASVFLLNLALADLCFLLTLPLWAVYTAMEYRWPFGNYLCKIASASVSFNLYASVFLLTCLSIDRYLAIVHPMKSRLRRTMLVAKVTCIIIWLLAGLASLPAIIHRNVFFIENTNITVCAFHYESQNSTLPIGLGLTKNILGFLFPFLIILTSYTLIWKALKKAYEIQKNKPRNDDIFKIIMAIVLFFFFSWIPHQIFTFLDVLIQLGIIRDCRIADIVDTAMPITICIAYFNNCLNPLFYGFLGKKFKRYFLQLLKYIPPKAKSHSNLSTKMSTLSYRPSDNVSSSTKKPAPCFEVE

[3] = molecular target: T3, Gastrin/cholecystokinin type B receptor (Homo sapiens, UniProt P32239)
T3 sequence (P32239 whole entry): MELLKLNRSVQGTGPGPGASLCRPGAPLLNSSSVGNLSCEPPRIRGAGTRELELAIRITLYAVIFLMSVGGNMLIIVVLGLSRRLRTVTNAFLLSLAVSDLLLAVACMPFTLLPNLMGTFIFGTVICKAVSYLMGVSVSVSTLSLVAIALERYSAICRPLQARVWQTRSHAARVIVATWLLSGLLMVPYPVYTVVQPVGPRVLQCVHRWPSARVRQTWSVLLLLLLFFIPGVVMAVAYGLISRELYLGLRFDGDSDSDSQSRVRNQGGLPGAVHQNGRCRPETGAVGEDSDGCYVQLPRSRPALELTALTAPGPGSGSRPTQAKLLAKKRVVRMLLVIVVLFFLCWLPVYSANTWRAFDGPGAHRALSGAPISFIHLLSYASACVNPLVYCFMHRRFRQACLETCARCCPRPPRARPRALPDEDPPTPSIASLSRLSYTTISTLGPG

[4] = molecular target: T4, Muscarinic acetylcholine receptor M2 (Homo sapiens, UniProt P08172); format: functional, cell-based
T4 sequence (P08172 whole entry): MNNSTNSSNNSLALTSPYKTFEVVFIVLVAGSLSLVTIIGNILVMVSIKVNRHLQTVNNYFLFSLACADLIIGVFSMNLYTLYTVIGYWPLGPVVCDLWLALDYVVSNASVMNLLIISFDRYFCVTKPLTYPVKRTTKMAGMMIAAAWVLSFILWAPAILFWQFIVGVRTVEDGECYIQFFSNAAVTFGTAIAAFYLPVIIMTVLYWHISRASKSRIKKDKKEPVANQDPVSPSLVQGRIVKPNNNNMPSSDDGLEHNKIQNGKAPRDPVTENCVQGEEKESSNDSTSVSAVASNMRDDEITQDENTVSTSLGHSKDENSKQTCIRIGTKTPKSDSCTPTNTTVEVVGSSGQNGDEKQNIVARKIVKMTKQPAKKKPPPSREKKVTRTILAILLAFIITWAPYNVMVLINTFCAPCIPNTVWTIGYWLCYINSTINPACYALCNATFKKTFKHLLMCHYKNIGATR

[5] = molecular target: Muscarinic acetylcholine receptor M3 (Homo sapiens, UniProt P20309)
Muscarinic acetylcholine receptor M3, sequence (P20309 whole entry): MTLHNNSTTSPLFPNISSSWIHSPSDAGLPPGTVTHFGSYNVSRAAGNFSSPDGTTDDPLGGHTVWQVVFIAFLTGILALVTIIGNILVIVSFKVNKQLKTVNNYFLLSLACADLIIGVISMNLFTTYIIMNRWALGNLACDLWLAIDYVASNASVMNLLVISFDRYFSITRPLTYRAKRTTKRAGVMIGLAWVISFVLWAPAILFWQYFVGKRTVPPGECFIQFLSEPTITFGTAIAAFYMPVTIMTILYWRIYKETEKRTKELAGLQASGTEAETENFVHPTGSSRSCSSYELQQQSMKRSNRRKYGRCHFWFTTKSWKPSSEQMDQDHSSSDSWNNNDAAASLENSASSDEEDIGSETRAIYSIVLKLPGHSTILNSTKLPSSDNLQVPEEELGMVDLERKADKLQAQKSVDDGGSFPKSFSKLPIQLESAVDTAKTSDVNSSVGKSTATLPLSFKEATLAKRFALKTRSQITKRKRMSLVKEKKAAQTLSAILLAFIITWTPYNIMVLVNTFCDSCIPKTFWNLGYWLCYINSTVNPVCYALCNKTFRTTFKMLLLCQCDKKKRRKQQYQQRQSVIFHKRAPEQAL

[6] = molecular target: Neuronal acetylcholine receptor subunit alpha-4 (Homo sapiens, UniProt P43681)
Neuronal acetylcholine receptor subunit alpha-4, sequence (P43681 whole entry): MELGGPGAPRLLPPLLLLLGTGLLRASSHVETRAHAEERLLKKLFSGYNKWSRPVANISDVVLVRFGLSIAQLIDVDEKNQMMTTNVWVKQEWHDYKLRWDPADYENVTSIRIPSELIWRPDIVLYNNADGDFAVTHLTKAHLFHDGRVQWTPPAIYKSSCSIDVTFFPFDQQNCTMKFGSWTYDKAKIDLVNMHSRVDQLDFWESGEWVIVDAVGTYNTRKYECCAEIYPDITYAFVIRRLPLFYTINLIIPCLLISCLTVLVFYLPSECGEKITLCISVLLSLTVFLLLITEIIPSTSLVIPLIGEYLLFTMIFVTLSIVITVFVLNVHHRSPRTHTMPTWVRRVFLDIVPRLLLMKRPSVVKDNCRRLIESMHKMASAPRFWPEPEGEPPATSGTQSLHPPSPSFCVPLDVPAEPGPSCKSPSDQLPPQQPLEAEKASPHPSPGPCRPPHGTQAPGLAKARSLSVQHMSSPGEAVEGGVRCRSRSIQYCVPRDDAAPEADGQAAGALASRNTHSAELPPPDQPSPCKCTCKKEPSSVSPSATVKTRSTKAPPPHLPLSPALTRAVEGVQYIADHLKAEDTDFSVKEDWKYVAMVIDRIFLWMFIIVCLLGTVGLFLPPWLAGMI

D(1A) dopamine receptor = D(1A) dopamine receptor (Homo sapiens, UniProt P21728); format: functional, cell-based
D(1A) dopamine receptor, sequence (P21728 whole entry): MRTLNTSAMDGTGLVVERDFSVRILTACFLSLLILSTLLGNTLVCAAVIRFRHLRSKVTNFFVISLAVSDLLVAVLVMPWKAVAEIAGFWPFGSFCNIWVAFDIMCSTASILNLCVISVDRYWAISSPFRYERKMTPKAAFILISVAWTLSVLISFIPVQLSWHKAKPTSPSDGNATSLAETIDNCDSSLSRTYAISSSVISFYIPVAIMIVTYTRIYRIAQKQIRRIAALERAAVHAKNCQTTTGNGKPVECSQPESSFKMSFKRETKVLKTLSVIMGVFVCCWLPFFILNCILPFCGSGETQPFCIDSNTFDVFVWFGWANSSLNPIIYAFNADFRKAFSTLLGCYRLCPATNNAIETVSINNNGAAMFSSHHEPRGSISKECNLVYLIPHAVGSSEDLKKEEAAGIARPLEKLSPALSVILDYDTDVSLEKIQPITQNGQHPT

[7] = molecular target: Gamma-aminobutyric acid receptor subunit alpha-1 (Rattus norvegicus, UniProt P62813); format: functional
Gamma-aminobutyric acid receptor subunit alpha-1, sequence (P62813 whole entry): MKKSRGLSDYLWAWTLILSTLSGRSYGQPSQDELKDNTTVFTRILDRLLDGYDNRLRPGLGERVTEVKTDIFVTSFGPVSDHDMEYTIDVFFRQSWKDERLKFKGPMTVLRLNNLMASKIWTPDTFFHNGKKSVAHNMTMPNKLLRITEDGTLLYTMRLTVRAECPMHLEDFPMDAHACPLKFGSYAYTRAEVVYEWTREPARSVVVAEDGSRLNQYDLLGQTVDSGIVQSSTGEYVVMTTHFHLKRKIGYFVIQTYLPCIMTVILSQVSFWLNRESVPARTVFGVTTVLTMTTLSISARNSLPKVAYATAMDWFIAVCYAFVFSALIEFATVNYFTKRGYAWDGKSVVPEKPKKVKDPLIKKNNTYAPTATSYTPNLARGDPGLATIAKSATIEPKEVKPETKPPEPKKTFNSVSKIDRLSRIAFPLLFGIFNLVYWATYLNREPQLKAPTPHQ

[8] = molecular target: Growth hormone secretagogue receptor type 1 (Homo sapiens, UniProt Q92847)
Growth hormone secretagogue receptor type 1, sequence (Q92847 whole entry): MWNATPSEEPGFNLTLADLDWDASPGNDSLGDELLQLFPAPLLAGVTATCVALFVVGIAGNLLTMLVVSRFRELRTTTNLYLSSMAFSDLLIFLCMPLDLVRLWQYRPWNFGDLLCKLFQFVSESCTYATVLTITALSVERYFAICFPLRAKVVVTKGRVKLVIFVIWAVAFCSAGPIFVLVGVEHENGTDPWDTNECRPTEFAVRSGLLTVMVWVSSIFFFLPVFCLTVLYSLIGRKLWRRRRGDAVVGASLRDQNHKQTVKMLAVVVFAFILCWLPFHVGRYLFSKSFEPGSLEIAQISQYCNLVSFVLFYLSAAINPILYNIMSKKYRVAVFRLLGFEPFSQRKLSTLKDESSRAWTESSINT

Histamine H1 receptor = Histamine H1 receptor (Homo sapiens, UniProt P35367)
Histamine H1 receptor, sequence (P35367 whole entry): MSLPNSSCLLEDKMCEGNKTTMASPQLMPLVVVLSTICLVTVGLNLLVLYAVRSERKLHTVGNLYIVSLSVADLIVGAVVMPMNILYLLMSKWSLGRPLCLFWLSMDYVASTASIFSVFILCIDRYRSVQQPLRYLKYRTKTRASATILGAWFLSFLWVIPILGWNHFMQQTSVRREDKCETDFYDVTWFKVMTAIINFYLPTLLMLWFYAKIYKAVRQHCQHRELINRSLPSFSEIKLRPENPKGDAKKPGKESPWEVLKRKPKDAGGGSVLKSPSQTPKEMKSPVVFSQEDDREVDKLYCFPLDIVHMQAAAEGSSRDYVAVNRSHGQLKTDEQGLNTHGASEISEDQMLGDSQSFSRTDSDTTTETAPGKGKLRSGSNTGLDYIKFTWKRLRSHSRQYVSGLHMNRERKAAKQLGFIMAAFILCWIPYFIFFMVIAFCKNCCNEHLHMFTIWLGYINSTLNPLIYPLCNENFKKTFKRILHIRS

Histamine H2 receptor = Histamine H2 receptor (Homo sapiens, UniProt P25021); format: functional, cell-based
Histamine H2 receptor, sequence (P25021 whole entry): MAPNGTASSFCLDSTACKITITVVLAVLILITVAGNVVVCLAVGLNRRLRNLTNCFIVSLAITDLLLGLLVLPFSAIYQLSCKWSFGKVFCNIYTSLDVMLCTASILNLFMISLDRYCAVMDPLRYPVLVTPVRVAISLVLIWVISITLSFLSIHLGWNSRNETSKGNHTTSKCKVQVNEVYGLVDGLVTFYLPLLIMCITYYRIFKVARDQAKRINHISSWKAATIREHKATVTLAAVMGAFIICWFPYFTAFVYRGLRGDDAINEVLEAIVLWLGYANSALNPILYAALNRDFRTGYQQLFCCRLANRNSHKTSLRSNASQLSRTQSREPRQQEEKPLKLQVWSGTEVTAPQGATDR

[9] = molecular target: T5, 5-hydroxytryptamine receptor 1A (Homo sapiens, UniProt P08908); format: functional, cell-based
T5 sequence (P08908 whole entry): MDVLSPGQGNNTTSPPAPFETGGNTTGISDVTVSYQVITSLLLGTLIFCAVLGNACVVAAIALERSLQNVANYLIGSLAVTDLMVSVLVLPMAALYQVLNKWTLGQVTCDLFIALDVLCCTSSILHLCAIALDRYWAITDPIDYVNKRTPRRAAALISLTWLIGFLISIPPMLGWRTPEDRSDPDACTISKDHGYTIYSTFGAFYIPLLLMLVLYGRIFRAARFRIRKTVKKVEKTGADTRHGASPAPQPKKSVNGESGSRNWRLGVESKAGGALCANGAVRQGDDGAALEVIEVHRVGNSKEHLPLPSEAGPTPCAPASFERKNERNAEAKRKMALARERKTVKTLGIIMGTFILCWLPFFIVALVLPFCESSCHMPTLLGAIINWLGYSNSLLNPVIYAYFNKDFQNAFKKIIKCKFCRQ

[10] = molecular target: 5-hydroxytryptamine receptor 2B (Homo sapiens, UniProt P41595); format: functional, cell-based
5-hydroxytryptamine receptor 2B, sequence (P41595 whole entry): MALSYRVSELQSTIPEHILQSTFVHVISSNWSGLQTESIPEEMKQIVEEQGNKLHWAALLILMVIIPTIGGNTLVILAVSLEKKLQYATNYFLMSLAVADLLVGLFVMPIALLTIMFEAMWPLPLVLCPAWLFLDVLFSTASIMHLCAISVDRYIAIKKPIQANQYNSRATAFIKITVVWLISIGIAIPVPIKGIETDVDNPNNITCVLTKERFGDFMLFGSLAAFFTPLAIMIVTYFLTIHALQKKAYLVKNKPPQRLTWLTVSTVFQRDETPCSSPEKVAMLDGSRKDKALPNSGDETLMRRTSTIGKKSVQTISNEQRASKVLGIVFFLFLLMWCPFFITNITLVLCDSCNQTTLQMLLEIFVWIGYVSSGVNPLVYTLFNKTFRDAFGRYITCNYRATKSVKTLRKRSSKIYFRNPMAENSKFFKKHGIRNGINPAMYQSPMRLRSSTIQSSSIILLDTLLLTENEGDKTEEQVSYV

[11] = molecular target: Sodium-dependent serotonin transporter (Homo sapiens, UniProt P31645)
[12] = molecular target: cGMP-inhibited 3',5'-cyclic phosphodiesterase 3A (Homo sapiens, UniProt Q14432); format: functional
cGMP-inhibited 3',5'-cyclic phosphodiesterase 3A, sequence (Q14432 whole entry): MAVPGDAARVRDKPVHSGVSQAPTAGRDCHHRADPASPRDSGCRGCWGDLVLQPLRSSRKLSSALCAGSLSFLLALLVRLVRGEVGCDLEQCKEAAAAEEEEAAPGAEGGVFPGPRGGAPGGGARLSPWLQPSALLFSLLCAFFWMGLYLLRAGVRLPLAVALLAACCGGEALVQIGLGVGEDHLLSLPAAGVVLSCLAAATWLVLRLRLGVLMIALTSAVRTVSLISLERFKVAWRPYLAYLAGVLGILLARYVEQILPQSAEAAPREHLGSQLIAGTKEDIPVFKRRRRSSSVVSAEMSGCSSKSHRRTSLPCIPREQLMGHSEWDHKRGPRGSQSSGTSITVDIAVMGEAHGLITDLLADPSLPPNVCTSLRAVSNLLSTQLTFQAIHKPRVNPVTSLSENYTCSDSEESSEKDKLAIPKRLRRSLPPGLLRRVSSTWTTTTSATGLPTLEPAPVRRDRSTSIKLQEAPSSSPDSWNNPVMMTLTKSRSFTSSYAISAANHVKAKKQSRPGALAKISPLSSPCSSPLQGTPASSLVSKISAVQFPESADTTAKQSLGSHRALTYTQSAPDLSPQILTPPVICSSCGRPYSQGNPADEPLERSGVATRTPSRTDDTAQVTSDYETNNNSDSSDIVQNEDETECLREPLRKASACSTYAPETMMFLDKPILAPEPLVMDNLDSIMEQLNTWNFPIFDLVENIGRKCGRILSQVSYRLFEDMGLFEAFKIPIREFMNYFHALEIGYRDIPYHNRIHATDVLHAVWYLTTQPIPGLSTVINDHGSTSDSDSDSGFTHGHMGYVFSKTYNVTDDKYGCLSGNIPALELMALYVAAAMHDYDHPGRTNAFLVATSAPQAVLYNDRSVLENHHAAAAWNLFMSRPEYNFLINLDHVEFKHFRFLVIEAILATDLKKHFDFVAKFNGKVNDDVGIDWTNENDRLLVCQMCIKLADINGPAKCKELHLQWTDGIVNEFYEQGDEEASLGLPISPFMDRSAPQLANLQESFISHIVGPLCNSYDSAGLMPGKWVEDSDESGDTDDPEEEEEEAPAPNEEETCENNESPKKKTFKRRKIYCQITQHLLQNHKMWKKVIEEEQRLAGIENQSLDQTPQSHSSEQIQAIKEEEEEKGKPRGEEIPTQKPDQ

[13] = molecular target: Delta-type opioid receptor (Homo sapiens, UniProt P41143)
Mu-type opioid receptor = Mu-type opioid receptor (Homo sapiens, UniProt P35372); experiment: biochemical; format: functional
Note: assay procedure not described here.

SMILES | AC50 [1] | AC50 [2] | AC50 [3] | AC50 [4] | AC50 [5] | AC50 [6] | AC50 (D(1A) dopamine receptor) | AC50 [7] | AC50 [8] | AC50 (Histamine H1 receptor) | AC50 (Histamine H2 receptor) | AC50 [9] | AC50 [10] | AC50 [11] | AC50 [12] | AC50 [13] | AC50 (Mu-type opioid receptor)
COc1ccc2c3c1O[C@H]1[C@@H](O)C=C[C@H]4[C@@H](C2)N(C)CC[C@@]341 [CODEINE] | > 10 µM | > 30 µM | > 30 µM | > 10 µM | > 30 µM | > 10 µM | > 10 µM | > 10 µM | > 30 µM | > 10 µM | > 10 µM | > 10 µM | > 10 µM | > 30 µM | 3 µM |  | 
CN1CCC(=C2c3ccccc3CCc3sccc32)CC1 [PIZOTYLINE] | 3.97 µM | > 30 µM | > 30 µM | 0.123 µM | > 10 µM | > 10 µM | > 30 µM | > 10 µM | > 30 µM | 0.0047 µM | > 10 µM | 3.56 µM | > 30 µM | 8.88 µM | > 30 µM | > 30 µM | 
C[C@](N)(Cc1ccc(O)c(O)c1)C(=O)O [METHYLDOPA] | > 10 µM | > 10 µM |  | > 10 µM |  | > 10 µM | > 30 µM | > 10 µM | > 10 µM |  | > 30 µM | > 10 µM | > 10 µM |  | > 30 µM | > 30 µM | > 30 µM
CC[C@@H]1C(=O)OC[C@@H]1Cc1cncn1C [PILOCARPINE] | > 10 µM | > 30 µM | > 30 µM |  |  | > 10 µM | > 10 µM | > 10 µM | > 30 µM | > 10 µM | > 10 µM | > 30 µM | > 10 µM | > 30 µM | > 30 µM | > 30 µM | 
CNC(C)CCC=C(C)C (stereo not given) [ISOMETHEPTENE] |  | > 30 µM | > 30 µM |  |  | > 30 µM |  |  | > 30 µM |  |  |  |  | > 30 µM |  |  | 
CN1CCN(CC/C=C2/c3ccccc3Sc3ccc(S(=O)(=O)N(C)C)cc32)CC1 [THIOTHIXENE] | 5.9 µM | > 30 µM | > 30 µM | > 10 µM | > 10 µM |  | > 30 µM | > 10 µM | 25.3 µM |  | > 10 µM |  | > 10 µM | > 10 µM | 11 µM | > 10 µM | 
CCc1c(Cl)c(O)c(Cl)c(O)c1C(=O)O[C@H]1[C@H](O)[C@H](OC)[C@H](OC/C2=C\C=C\C[C@H](O)/C(C)=C/[C@H](CC)[C@@H](O[C@@H]3OC(C)(C)[C@@H](OC(=O)C(C)C)[C@H](O)[C@@H]3O)/C(C)=C/C(C)=C/C[C@@H]([C@@H](C)O)OC2=O)O[C@@H]1C [FIDAXOMICIN] |  | > 30 µM | 7.9 µM |  |  | > 10 µM |  | > 10 µM | > 30 µM | > 30 µM |  |  | > 30 µM | > 30 µM | > 30 µM | > 30 µM | 
CCCCc1ncc(/C=C(\Cc2cccs2)C(=O)O)n1Cc1ccc(C(=O)O)cc1 [EPROSARTAN] | > 10 µM | 0.0019 µM | > 10 µM | > 10 µM | > 10 µM | > 10 µM | > 30 µM | > 10 µM | > 10 µM | > 10 µM | > 10 µM | > 10 µM | > 10 µM | > 30 µM | > 10 µM | > 10 µM | 
CCCc1nc(C(C)(C)O)c(C(=O)OCc2oc(=O)oc2C)n1Cc1ccc(-c2ccccc2-c2nnn[nH]2)cc1 [OLMESARTAN MEDOXOMIL] | > 10 µM | 0.0009 µM | > 50 µM | > 10 µM | > 10 µM | > 10 µM | > 10 µM | > 10 µM | > 50 µM | > 10 µM | > 10 µM | > 10 µM | > 10 µM | > 30 µM | 11 µM | > 10 µM | 
Cc1ccc(S(=O)(=O)NC(=O)NN2CC3CCCC3C2)cc1 (stereo not given) [GLICLAZIDE] | > 10 µM | > 10 µM |  | > 10 µM |  | > 10 µM | > 30 µM | > 10 µM | > 10 µM |  | > 30 µM | > 10 µM | > 10 µM |  | > 30 µM | > 30 µM | > 30 µM
COc1ccc2c3c1O[C@H]1C(=O)CC[C@@]4(O)[C@@H](C2)N(C)CC[C@]314 [OXYCODONE] | > 30 µM | > 30 µM | > 30 µM | > 30 µM | > 30 µM | > 30 µM | > 30 µM | > 30 µM | > 30 µM | > 30 µM | > 30 µM | > 30 µM | > 30 µM | > 30 µM | > 30 µM |  | 
CC(C)(C)c1cc(C(C)(C)C)c(NC(=O)c2c[nH]c3ccccc3c2=O)cc1O [IVACAFTOR] | > 10 µM | 26.9 µM | > 30 µM |  | > 30 µM | > 10 µM |  | > 10 µM | > 30 µM | > 10 µM | > 10 µM |  | > 10 µM | > 30 µM | > 30 µM | > 30 µM | 
CN1C(=O)C(O)N=C(c2ccccc2)c2cc(Cl)ccc21 (stereo not given) [TEMAZEPAM] | > 10 µM | > 30 µM | > 30 µM | > 10 µM | > 10 µM | > 10 µM | > 10 µM | 0.044 µM | > 30 µM | > 10 µM | > 10 µM | > 10 µM | > 10 µM | > 10 µM | 3 µM | > 30 µM | 
